Reference: patent US20150057443A1, “Cycloalkyl Amine Compounds” (Prexa Pharmaceuticals, Inc., priority 2013, published 2015)
Where two headings read alike, the source gives them in different places.

What was measured:
[1] = biological target: T1, human recombinant NET (Homo sapiens, UniProt P23975); test: NET radioligand binding assay (scintillation proximity, [3H]nisoxetine)
T1 construct: membranes)
Method: (§1) Affinity of the compounds for monoamine transporters was determined by in vitro radioligand binding assays using cell membrane preparations derived from HEK293 cell lines stably expressing human recombinant DAT, NET or SERT receptor (Suven Life Sciences, Hyderabad, India).
(§2) Stable DAT cell lines were generated following procedures described in Eshelman et al., Molecular Pharmacology 45, 312-316; 1994. Stable NET cell lines were generated following procedures described in Pacholczyk et al., Nature 350, 350-354, 1991 and Galli et al., Journal Exp. Biol. 198, 2197-2212, 1995. Stable SERT cell lines were generated following procedures described in Ramamoorthy et al., Proc Natl Acad Sci USA 90, 2542-246, 1993.
(§3) Cell membranes were obtained from the above-referenced cell lines by manually homogenizing previously frozen cell pellets in Tris-HCl buffer and serially centrifugating and re-extracting the preparations according procedures described in Subbu et al., Journal Pharmacol ExpTher 327, 982-990, 2008.
(§4) A scintillation proximity assay was used to measure receptor binding. Homogenized membrane preparations (final protein concentration 8-15 ug/well) were pre-incubated with WGA PVT SPA beads (0.5 mg/well) for 5 minutes. Binding was initiated by adding high affinity ligands and test compounds (0.1 nM to 10 μM) or reference/positive control ligands to the membrane-bead complex. Plates were incubated for three hours and raw data counts recorded using a liquid scintillation counter (MicroBetaTriLux Counter, Perkin Elmer). Inhibition constants (Ki) were calculated using GraphPad Prism software (version 4.0).
NET receptor binding was determined using procedures described in Mason et al., The Journal of Pharmacology and Experimental Therapeutics 323:720-729, 2007; and Eshleman et al., The Journal of Pharmacology and Experimental Therapeutics289:877-885, 1999. A mixture of [3H]nisoxetine hydrochloride (N-methyl-[3H]nisoxetine, Perkin Elmer) and bead-membrane complex was added to wells containing test compound. Wells containing unlabeled nisoxetine (100 uM, Sigma) were used to define non-specific NET binding. Total radioligand was defined using assay buffer containing 1% DMSO in the presence of [3H]nisoxetine. NET Ki values were calculated using GraphPad Prism software (version 4.0).

[2] = biological target: T2, human recombinant SERT (Homo sapiens, UniProt P31645); test: SERT radioligand binding assay (scintillation proximity, [3H]citalopram)
T2 construct: membranes)
Method: as §1, §2, §3, §4
SERT receptor binding was determined using procedures described in Owens et al., The Journal of Pharmacology and Experimental Therapeutics 283:1305-1322, 1997. A mixture of [3H]citalopram (N-methyl-[3H]citalopram, Perkin Elmer) and bead-membrane complex was added to wells containing test compound. Non-specific binding was determined using wells containing venlafaxine hydrochloride (100 uM, Sigma). Total radioligand was determined using assay buffer containing 1% DMSO in the presence of [3H]citalopram. SERT Ki values were calculated using GraphPad Prism software (version 4.0).

[3] = biological target: human recombinant DAT (Homo sapiens, UniProt Q01959); test: DAT radioligand binding assay (scintillation proximity, [3H]WIN-35428)
Method: as §1, §2, §3, §4
DAT receptor binding was determined using procedures described in Skolnick et al., European Journal of Pharmacology, 461(2-3):99-104, 2003; and Eshleman et al., The Journal of Pharmacology and Experimental Therapeutics 289:877-885, 1999. A mixture of [3H]WIN-35428 (N-methyl 3H-WIN-35428, Perkin Elmer) and bead-membrane complex was added to wells containing test compound. Wells containing nomifensine maleate ([…], Sigma) were used to define non-specific […] binding. Total radioligand was defined by assay buffer containing 1% DMSO in the presence of [3H]WIN-35428. DAT Ki values were calculated using GraphPad Prism software (version 4.0).

[4] = HEK293 cell membranes expressing human recombinant NET, [3H]nisoxetine, SPA, read-out: NET Ki
[5] = HEK293 cell membranes expressing human recombinant SERT, [3H]citalopram, SPA, read-out: SERT Ki

T1 sequence (P23975 whole entry): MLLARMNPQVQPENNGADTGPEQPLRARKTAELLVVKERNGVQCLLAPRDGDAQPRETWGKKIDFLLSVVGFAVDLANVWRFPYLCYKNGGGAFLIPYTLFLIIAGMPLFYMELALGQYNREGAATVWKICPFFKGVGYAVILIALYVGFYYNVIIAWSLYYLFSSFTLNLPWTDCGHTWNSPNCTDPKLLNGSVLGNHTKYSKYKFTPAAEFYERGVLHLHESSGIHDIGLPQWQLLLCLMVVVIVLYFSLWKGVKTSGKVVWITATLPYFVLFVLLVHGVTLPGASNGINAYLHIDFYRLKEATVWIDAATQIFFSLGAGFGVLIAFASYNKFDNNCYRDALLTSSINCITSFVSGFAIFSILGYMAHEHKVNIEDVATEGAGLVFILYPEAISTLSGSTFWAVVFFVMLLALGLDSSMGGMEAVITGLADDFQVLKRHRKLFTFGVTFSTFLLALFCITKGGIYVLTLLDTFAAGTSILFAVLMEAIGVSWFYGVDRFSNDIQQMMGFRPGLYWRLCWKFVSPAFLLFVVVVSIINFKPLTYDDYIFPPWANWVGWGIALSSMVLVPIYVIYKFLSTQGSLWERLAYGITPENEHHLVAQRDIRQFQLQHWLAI
T2 sequence (P31645 whole entry): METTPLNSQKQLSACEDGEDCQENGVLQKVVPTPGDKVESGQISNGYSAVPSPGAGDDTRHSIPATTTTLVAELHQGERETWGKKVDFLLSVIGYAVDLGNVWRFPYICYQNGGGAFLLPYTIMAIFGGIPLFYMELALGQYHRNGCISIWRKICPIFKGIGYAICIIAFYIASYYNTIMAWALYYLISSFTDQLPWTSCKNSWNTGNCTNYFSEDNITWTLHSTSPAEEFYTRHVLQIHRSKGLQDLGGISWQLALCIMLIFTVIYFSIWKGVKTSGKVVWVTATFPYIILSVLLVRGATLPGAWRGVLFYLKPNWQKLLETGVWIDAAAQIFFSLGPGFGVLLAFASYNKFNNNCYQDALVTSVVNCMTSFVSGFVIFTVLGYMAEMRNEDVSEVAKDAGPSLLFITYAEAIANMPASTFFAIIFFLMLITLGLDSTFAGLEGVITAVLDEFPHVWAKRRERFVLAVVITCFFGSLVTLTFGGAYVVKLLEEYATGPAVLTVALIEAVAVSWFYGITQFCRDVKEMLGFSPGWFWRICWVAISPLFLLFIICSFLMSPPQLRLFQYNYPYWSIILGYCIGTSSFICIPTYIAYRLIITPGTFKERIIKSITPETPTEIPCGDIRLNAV
human recombinant DAT, sequence (Q01959 whole entry): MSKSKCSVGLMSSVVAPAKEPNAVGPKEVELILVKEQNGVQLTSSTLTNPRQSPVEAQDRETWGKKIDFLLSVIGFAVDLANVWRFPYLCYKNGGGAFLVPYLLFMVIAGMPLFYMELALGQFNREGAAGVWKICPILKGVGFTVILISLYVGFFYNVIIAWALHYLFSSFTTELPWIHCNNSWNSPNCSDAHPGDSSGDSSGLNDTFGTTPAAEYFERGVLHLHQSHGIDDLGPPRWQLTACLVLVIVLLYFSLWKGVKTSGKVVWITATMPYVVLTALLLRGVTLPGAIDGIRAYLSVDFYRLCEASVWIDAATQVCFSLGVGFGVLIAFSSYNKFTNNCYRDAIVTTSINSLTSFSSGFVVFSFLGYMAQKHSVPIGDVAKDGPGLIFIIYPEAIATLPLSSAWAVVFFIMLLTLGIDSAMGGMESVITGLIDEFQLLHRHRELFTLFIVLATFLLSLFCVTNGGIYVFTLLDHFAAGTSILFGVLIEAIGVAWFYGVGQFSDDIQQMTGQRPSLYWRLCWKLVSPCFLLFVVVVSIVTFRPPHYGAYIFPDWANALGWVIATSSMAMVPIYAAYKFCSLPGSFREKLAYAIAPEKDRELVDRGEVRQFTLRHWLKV

SMILES	Ki [1, 4] [nM]	Ki [2, 5] [nM]	Ki [3] [nM]	Ki [1] [nM]	Ki [2] [nM]	Ki ([3]; HEK293 cell membranes expressing human recombinant DAT, [3H]WIN-35428, SPA, read-out: DAT Ki) [nM]
OC(CNC1CC1)C1(c2ccc(Cl)c(Cl)c2)CCC1 (stereo not drawn) [Compound 35, N-{2-[1-(3,4-Dichlorophenyl)cyclobutyl]-2-hydroxyethyl}cyclopropanaminium chloride]	101 to 500	> 500	11 to 100	–	–	–
OC(CNC1CCC1)C1(c2ccc(Cl)c(Cl)c2)CCC1 (stereo not drawn) [Compound 36, N-{2-[1-(3,4-Dichlorophenyl)cyclobutyl]-2-hydroxyethyl}cyclobutanaminium chloride]	101 to 500	101 to 500	11 to 100	–	–	–
CC1(NCC(O)C2(c3ccc(Cl)c(Cl)c3)CCC2)CCC1 (stereo not drawn) [Compound 38, N-{2-[1-(3,4-Dichlorophenyl)cyclobutyl]-2-hydroxyethyl}-1-methylcyclobutan-1-aminium chloride]	11 to 100	101 to 500	< 10	–	–	–
OC(CN1CC2CC(F)C1C2)C1(c2ccc(Cl)c(Cl)c2)CCC1 (stereo not drawn) [Compound 39, 2-{2-[1-(3,4-Dichlorophenyl)cyclobutyl]-2-hydroxyethyl}-6-fluoro-2-azabicyclo[2.2.1]heptan-2-ium chloride]	101 to 500	> 500	101 to 500	–	–	–
CC(F)C(C)NCC(O)C1(c2ccc(Cl)c(Cl)c2)CCC1 (stereo not drawn) [Compound 42, {2-[1-(3,4-dichlorophenyl)cyclobutyl]-2-hydroxyethyl}(3-fluorobutan-2-yl)azanium chloride]	101 to 500	101 to 500	11 to 100	–	–	–
CCN(CC(O)C1(c2ccc(Cl)c(Cl)c2)CCC1)C(C)C (stereo not drawn) [Compound 47, {2-[1-(3,4-Dichlorophenyl)cyclobutyl]-2-hydroxyethyl}(ethyl)(propan-2-yl)azanium chloride]	11 to 100	101 to 500	11 to 100	–	–	–
CCCN(CC)CC(O)C1(c2ccc(Cl)c(Cl)c2)CCC1 (stereo not drawn) [Compound 48, {2-[1-(3,4-Dichlorophenyl)cyclobutyl]-2-hydroxyethyl}(ethyl)propylazanium chloride]	11 to 100	101 to 500	11 to 100	–	–	–
COC(CN1CCCCC1)C1(c2ccc(Cl)c(Cl)c2)CCC1 (stereo not drawn) [Compound 59, 1-{2-[1-(3,4-dichlorophenyl)cyclobutyl]-2-methoxyethyl}piperidin-1-ium chloride]	> 500	> 500	> 500	–	–	–
OC(CN1CCCCC1)C1(c2ccc(Cl)c(Cl)c2)CCCC1 (stereo not drawn) [Compound 60, 1-{2-[1-(3,4-dichlorophenyl)cyclopentyl]-2-hydroxyethyl}piperidin-1-ium chloride]	101 to 500	101 to 500	11 to 100	–	–	–
O=C(CN1CCCCC1)C1(c2ccc(Cl)c(Cl)c2)CCCC1 [Compound 61, 1-{2-[1-(3,4-dichlorophenyl)cyclopentyl]-2-oxoethyl}piperidin-1-ium chloride]	> 500	> 500	11 to 100	–	–	–
O=C(CN1CCCCC1)C1(c2ccc(Cl)cc2)CCC1 [Compound 66]	–	–	–	> 500	> 500	> 500
O=C(CN1CCCCC1)C1(c2ccc(Cl)c(Cl)c2)CCC1 [Compound 67]	> 500	101 to 500	11 to 100	–	–	–
O=C(CN1CCCCC1)C1(c2ccccc2)CCC1 [Compound 68, 1-[2-oxo-2-(1-phenylcyclobutyl)ethyl]piperidin-1-ium chloride]	> 500	> 500	> 500	–	–	–
O=C(CN1CCCCC1)C1(c2cccc(Cl)c2)CCC1 [Compound 69]	> 500	> 500	> 500	–	–	–
CC(O)(CN1CCCCC1)C1(c2ccc(Cl)c(Cl)c2)CCC1 (stereo not drawn) [Compound 71, 1-{2-[1-(3,4-dichlorophenyl)cyclobutyl]-2-hydroxypropyl}piperidin-1-ium chloride]	101 to 500	> 500	11 to 100	–	–	–
